The text below walks through data of patent US9029553B2, “2-anilino nicotinyl linked 2-amino benzothiazole conjugates and process for the preparation thereof” (Council of Scientific & Industrial Research, priority 2011, dated 2015).

Test [1] deals with HL-60 cells. The test can be described thus: Flow cytometric analysis of reactive oxygen species (DCFH-DA). It counts as cell-based, human. The note with it: 1 μM, 24 hr, HL-60. As for the experimental part: It was clear that these compounds were cytotoxic and induce apoptosis in HL-60 cells, now we have to found out the early events which were responsible for the induction of apoptosis like reactive oxygen species (ROS) or nitric oxide (NO) generation. Intracellular peroxide (ROS) in the cells was measured by DCFH-DA by using flow cytometry. Cells were incubated with tested compounds at 1 μM for 24 h in HL-60 cells and analyzed by flow cytometry after double staining with DCFH-DA (FIG. 7). Cells were analyzed for fluorescence intensity in FL1 vs. cell count. There was hardly any DCF fluorescence (ROS positive cells) in the untreated HL-60 cells, and this status remained unchanged when cells were incubated for 24 hr with compounds 7 and 8. […] Compounds 4 and 6 also induce the generation of peroxide in HL-60 cells (31 and 16% increase, respectively).

Test [2] has as its system caspase-3, caspase-8, caspase-9 activity in HL-60 Cells. Briefly: Caspases induction. It counts as cell-based, human. To be noted: 1 μM, 24 h. The text has this:
So activation of caspases by compound 8 indicate that it induce apoptosis through both the intrinsic as well as extrinsic apoptotic pathway in HL-60 cells.

The subject of test [3] is HL-60 cells. Briefly: Annexin V-FITC flow cytometric analysis of apoptosis and necrosis. To be noted: 1 μM, 24 h. The format is cell-based, human. The protocol: During apoptosis an important biochemical change that take place in cells undergoing is flipping of phosphatidyl serine lipid from the inner leaflet of the cellular membrane to the outer one.
Annexin V a calcium dependent phospholipids binding protein has a high affinity for PS. […] Compounds 4-8 at 1 μM were treated with HL-60 cells were incubated for 24 h and the extent of apoptosis vs. necrosis was analyzed from the quadrant analysis of cell population with Annexin V-FITC. Both the apoptotic and post apoptotic cell populations increased in HL-60 cells.
Background: A flow cytometer gives signals particle by particle.

A further test deals with HL-60. Briefly: MTT inhibition of cell proliferation. The format is cell-based. To be noted: Homo sapiens, 48 h. The text has this:
(§1) In order to determine the mode of action of cell death in cancer cells, first we explored the cytotoxic potential of different structural analogs of benzothiazoles on different human cancer cell lines. […] These compounds have limited or no cytotoxicity to cervical cancer SiHa, HeLa cells, breast cancer MCF-7 cells and colon cancer HCT-15 cells.

In test [4] the test system is HCT-15. The test can be described thus: MTT inhibition of cell proliferation. To be noted: Homo sapiens, 48 h. It counts as cell-based.
Excerpt: as §1

For test [5], the system named is SiHa. The test can be described thus: MTT inhibition of cell proliferation. The format is cell-based. The note with it: Homo sapiens, 48 h.
Excerpt: as §1

In the next test the test system is Hela. Briefly: MTT inhibition of cell proliferation. The format is cell-based. The note with it: Homo sapiens, 48 h.
Excerpt: as §1

Test [6] concerns MCF-7. The test can be described thus: MTT inhibition of cell proliferation. It counts as cell-based. To be noted: Homo sapiens, MCF7, 48 h.
Excerpt: as §1

Test [7] relates to normal monkey kidney CV-1 cells. The test can be described thus: MTT cytotoxicity in normal cells. It counts as cell-based. To be noted: Primates. The protocol:
These compounds were also evaluated for their cytotoxic potential in normal cells and for these purpose their IC50 value were also determine in normal monkey kidney CV-1 cells by using MTT method. The ratios of normal to cancer cells IC50 value were ranges from 10-1000 times (Table 5).

The test system of a further test is PC-3. Briefly: SRB percentage growth inhibition (NCI protocol). The format is cell-based. The note with it: Homo sapiens, 48 hrs exposure. As for the experimental part:
(§2) 2-Anilino nicotinyl linked 2-amino benzothiazoles conjugates of formula 4-8 have been tested against ten and eleven human cancer cell lines for 10 and 1 μM respectively derived from nine cancer types (leukemia, non-small cell lung cancer, colon cancer, CNS cancer, melanoma, ovarian cancer, renal cancer, prostate cancer and breast cancer) as per NCI protocol. For each compound, percentage of growth inhibition was calculated for individual cell lines at a minimum of two concentrations (1 and 10 μM). A protocol of 48 hrs continuous drug exposure was used, and a sulforhodamine B (SRB) protein assay was used to estimate cell viability or growth. The percentage of growth inhibition compared with the control was calculated in table 1 and table 2.

In a further test the test system is HEP-2. Briefly: SRB percentage growth inhibition (NCI protocol). The format is cell-based. The note with it: Homo sapiens, 48 hrs exposure. The protocol:
as §2

The next test concerns SK-NS-H. The test can be described thus: SRB percentage growth inhibition (NCI protocol). To be noted: Homo sapiens, SK-N-SH, 48 hrs exposure. It counts as cell-based. As for the experimental part:
as §2

Another test has as its system IGR-OV-1. Briefly: SRB percentage growth inhibition (NCI protocol). The format is cell-based. The note with it: Homo sapiens, IGROV-1, 48 hrs exposure. As for the experimental part: as §2
In another test the test system is OVCAR-5. The test can be described thus: SRB percentage growth inhibition (NCI protocol). The note with it: Homo sapiens, 48 hrs exposure. It counts as cell-based. The protocol: as §2
The test system of a further test is A549. The test can be described thus: SRB percentage growth inhibition (NCI protocol). It counts as cell-based. The note with it: Homo sapiens, 48 hrs exposure. As for the experimental part:
as §2

For a further test, the system named is 502713. Briefly: SRB percentage growth inhibition (NCI protocol). The note with it: Homo sapiens, 48 hrs exposure. The format is cell-based. As for the experimental part:
as §2

Another test has as its system Sw-620. Briefly: SRB percentage growth inhibition (NCI protocol). It counts as cell-based. To be noted: Homo sapiens, 48 hrs exposure. As for the experimental part:
as §2

The test system of test [8] is HCT-15. Briefly: SRB percentage growth inhibition (NCI protocol). The note with it: Homo sapiens, 10 μM, 48 hrs exposure. It counts as cell-based. The protocol: as §2
Another test relates to IMR-32. Briefly: SRB percentage growth inhibition (NCI protocol). The format is cell-based. To be noted: Homo sapiens, 48 hrs exposure. As for the experimental part:
as §2

The subject of test [9] is SiHa. Briefly: SRB percentage growth inhibition (NCI protocol). The format is cell-based. The note with it: Homo sapiens, 48 hrs exposure. As for the experimental part: as §2
The subject of another test is DU145. The test can be described thus: SRB percentage growth inhibition (NCI protocol). The format is cell-based. The note with it: Homo sapiens, DU-145, 48 hrs exposure. As for the experimental part:
as §2

Test [10] has as its system MCF-7. The test can be described thus: SRB percentage growth inhibition (NCI protocol). It counts as cell-based. To be noted: Homo sapiens, MCF7, 48 hrs exposure. The protocol: as §2
Test [11] has as its system HL-60 cells. The test can be described thus: Cell cycle analysis (FACS) by flow cytometry. The format is cell-based, human. The note with it: 1 μM, up to 24 h. From the text: The damage was more apparent with compound 8 and 6 (90% and 60% DNA damaged, respectively).
Another test deals with RPMI-8226. The test can be described thus: NCI SRB GI50 screen. The format is cell-based. The note with it: Homo sapiens, Leukemia, 48 hrs exposure, read-out: Growth Inhibition GI50 RPMI-8226. As for the experimental part: 2-Anilino nicotinyl linked 2-amino benzothiazole conjugates of formula 9-12 were tested against fifty nine human cancer cell lines derived from nine cancer types (leukemia, non-small cell lung cancer, colon cancer, CNS cancer, melanoma, ovarian cancer, renal cancer, prostate cancer and breast cancer) as per NCI protocol. For each compound, dose response curves for individual cell lines were measured at a minimum of five concentrations at 10 fold dilutions. A protocol of 48 hrs continuous drug exposure was used, and a sulforhodamine B (SRB) protein assay was used to estimate cell viability or growth.

For orientation: IC50 means the point on the concentration scale where inhibition reaches its midpoint. By inhibition is commonly meant the drop in the measured response relative to a control, in per cent. For orientation: GI50 means the concentration giving 50% growth inhibition.

Regarding `O=C(Nc1nc2ccc([N+](=O)[O-])cc2s1)c1cccnc1Nc1cc(F)c(F)c(F)c1` [Compound 8, N3-(6-nitro-1,3-benzothiazol-2-yl)-2-[(3,4,5-trifluorophenyl)amino]-3-pyridine carboxamide], the “DCF fluorescence (ROS positive cells), in words” value in the test with HL-60 cells [1] is given as “unchanged”. Moreover, in test [2], the “activation of caspases-3,-8,-9 activities” value is 2-3 folds. The “apoptotic cells (Annexin V-FITC)” value in the test on HL-60 cells [3] is “around 70%”. The IC50 in the test with HL-60 is 0.08 µM; in the test with HCT-15 [4], greater than 100 µM; in the test with SiHa [5], 36 µM; with Hela, greater than 100 µM; in the test on MCF-7 [6] it was greater than 100 µM; in test [7], greater than 100 µM. The inhibition at 1 µM stood at 41% in the test on PC-3; 49% with HEP-2 (1 μM); 42% in the test with IGR-OV-1; 37% in the test with OVCAR-5 (1 μM); 27% with A549 (1 μM); 29% in the test on Sw-620 (1 μM). For the same compound, the inhibition at 1 µM with IMR-32 (1 μM) was determined as 48%; in the test on DU145 (1 μM), 58%; in the test on MCF-7 [10] it was 46%. Further, the inhibition at 10 µM with HEP-2 (10 μM) stood at 0%; with SK-NS-H, 49%; in the test on OVCAR-5 (10 μM), 52%; in the test with A549 (10 μM), 27%; in the test on 502713, 80%; in the test with Sw-620 (10 μM), 70%. The inhibition at 10 µM in the test on HCT-15 [8] turned out to be 62%; in the test with IMR-32 (10 μM), 72%; in the test with SiHa [9], 70%; with DU145 (10 μM), 39%. Moreover, the “DNA damaged (sub-G0 fraction)” value in the test on HL-60 cells [11] is 90%.

Regarding `COc1ccc2nc(NC(=O)c3cccnc3Nc3cc(OC)c(OC)c(OC)c3)sc2c1` [Compound 12, N-3-(6-methoxy-1,3-benzothiazol-2-yl)-2-(3,4,5-trimethoxyanilino) nicotinamide], in the test on RPMI-8226, the GI50 was determined as 9.94 µM.
